Assay: Inhibition of LOX (unknown origin) using arachidonic/linoleic acid as substrate preincubated for 5 mins followed by substrate addition measured after 10 mins by absorbance based assay

IC50 [nM]	SMILES
2400	Nc1c(C(=O)N/N=C/c2ccccc2)cnn1-c1ccc(S(N)(=O)=O)cc1
2500	Nc1c(C(=O)N/N=C/c2cccs2)cnn1-c1ccc(S(N)(=O)=O)cc1
